Test results: article PMC11292843 (ACS Omega, 2024)

Tests used:
hPTP1B1–400 [1] = biological target: T1, hPTP1B1–400 (Homo sapiens, UniProt P18031); experiment: PTP1B inhibition assay (pNPP, spectrocolorimetric), long form
T1 sequence (P18031 1-400): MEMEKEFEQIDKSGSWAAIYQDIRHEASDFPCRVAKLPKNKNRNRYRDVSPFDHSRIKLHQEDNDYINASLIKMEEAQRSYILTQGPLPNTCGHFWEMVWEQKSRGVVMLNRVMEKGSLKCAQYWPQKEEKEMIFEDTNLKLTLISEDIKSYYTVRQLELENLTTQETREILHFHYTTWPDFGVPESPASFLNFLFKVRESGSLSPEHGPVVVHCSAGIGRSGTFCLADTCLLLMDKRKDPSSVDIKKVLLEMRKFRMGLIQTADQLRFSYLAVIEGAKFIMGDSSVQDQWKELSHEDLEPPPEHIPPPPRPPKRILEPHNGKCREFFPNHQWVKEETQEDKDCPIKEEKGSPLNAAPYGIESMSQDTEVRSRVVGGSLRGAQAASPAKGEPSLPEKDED

hPTP1B1–400 [2] = biological target: T1, hPTP1B1–400; experiment: Enzyme kinetics (Lineweaver–Burk, varying pNPP); settings: for inhibition mechanism: hPTP1B1–400, best fit of inhibition models; for Km / Vmax: hPTP1B1–400, pNPP 0.1–0.5 mM
hPTP1B1–285 = biological target: T2, hPTP1B1–285 (Homo sapiens, UniProt P18031); experiment: PTP1B inhibition assay (pNPP, spectrocolorimetric), short form
T2 sequence (P18031 1-285): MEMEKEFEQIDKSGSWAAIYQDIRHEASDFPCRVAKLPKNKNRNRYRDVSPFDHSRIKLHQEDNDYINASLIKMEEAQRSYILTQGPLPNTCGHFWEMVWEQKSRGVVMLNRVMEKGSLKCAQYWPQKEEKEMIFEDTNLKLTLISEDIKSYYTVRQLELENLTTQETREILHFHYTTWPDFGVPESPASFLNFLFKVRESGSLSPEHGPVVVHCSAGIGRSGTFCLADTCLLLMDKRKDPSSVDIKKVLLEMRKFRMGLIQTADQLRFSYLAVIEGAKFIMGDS

hTCPTP = biological target: T3, hTCPTP (Homo sapiens, UniProt P17706); experiment: Selectivity assay against TCPTP; format: biochemical
T3 construct: His tag (vector pET-28a(+)-TEV, with TEV site); made in house; host or cells: E. coli BL21 (DE3)
T3 sequence (P17706 1-415): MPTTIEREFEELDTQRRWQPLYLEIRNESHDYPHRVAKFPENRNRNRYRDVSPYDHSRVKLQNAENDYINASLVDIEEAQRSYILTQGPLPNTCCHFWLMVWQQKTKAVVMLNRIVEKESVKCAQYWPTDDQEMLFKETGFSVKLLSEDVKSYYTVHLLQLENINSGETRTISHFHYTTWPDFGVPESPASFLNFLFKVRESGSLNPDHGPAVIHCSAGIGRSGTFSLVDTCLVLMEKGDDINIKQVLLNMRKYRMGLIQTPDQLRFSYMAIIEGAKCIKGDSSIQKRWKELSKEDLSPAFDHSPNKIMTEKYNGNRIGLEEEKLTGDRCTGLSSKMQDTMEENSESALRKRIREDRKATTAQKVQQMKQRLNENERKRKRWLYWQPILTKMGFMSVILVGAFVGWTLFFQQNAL
Description: A spectrocolorimetric method previously described[3] was employed to test the inhibitory effect of the new compounds against PTP1B. […] Enzyme solutions containing pNPP and inhibitors were incubated at 37 °C for 15 min. […] The percentage of inhibition was plotted as a function of the inhibitor concentrations.
Similarly to the IC50, the assays to determine the selectivity were carried out in the same experimental conditions using hPTP1B1–400 and hTCPTP.
The expression vector pET-28a(+)-TEV was obtained from Invitrogen (Waltham, MA, USA). E. coli strain DH5α and BL21 (DE3) were purchased from Invitrogen (Waltham, MA, USA). The gene PTPN2 was subcloned into the expression vector pET-28a (+)-TEV, using the NDEI and BAMHI cloning sites. The construction pET-28A(+)-TEV–PTPN2 was transformed into E. coli strain BL21 (DE3). Transformed E. coli cells were grown in LB media containing kanamycin ([…]) at 37 °C for 6 h with continuous agitation (250 rpm). Once the cultures reached an A600 of 0.6 (about 6 h), protein expression was induced with 1 mM IPTG at 37 °C, 250 rpm for 8 h. After centrifuge (4500 rpm, 15 min, 4 °C), the grown and IPTG-induced cultures and bacterial pellet were resuspended in Tris buffer (pH 6.8) and lysed by sonication (10 cycles, intervals of 30 s) in an ice–water bath with an ultrasonic processor (Cole-Parmer, Vernon Hills, IL, USA). […] The column was equilibrated with three column volumes of 50 mM Tris, pH 6.8. His-tagged protein was eluted with Tris 50 mM and 300 mM imidazole with one column volume. […] Fractions containing hTCPTP were dialyzed in 50 mM Tris, pH 6.8. The purity of the protein was followed by SDS-polyacrylamide gel electrophoresis (SDS-PAGE) using a 12% resolving gel.

[3] = IC50 ± SD hPTP1B1–400, hPTP1B 66 nM, pNPP 0.5 mM, 37 °C, 15 min

Row | IC50 (hPTP1B1–400 [1]; [3]) [µM] | SMILES | Ki (hPTP1B1–400 [2]) [µM] | inhibition mechanism (hPTP1B1–400 [2]) | Km (hPTP1B1–400 [2]) [µM] | Vmax (hPTP1B1–400 [2]) [mM/min] | also measured
1 | 33.1 ± 2.7 | C[C@H](CCC(=O)O)C1CCC2C3CC[C@@H]4C[C@](O)(CNCc5ccccc5)CC[C@]4(C)C3CC[C@@]21C (stereo partly drawn) [compound 6a, N-Benzyl-1-((3S,5R,10S,13R)-17-((R)-4-carboxybutan-2-yl)-3-hydroxy-10,13-dimethylhexadecahydro-1H-cyclopenta[a]phenanthren-3-yl)methanaminium Chloride] | – | – | – | – | –
2 | 16.3 ± 0.5 | Cc1cccc(CNC[C@]2(O)CC[C@]3(C)C4CC[C@@]5(C)C(CCC5[C@H](C)CCC(=O)O)C4CC[C@@H]3C2)c1 (stereo partly drawn) [compound 6e, 1-((3S,5R,10S,13R)-17-((R)-4-carboxybutan-2-yl)-3-hydroxy-10,13-dimethylhexadecahydro-1H-cyclopenta[a]phenanthren-3-yl)-N-(3-methylbenzyl)methanaminium Chloride] | – | – | – | – | IC50 (hPTP1B1–285): 53.8 ± 2.7 µM
3 | > 100 | C[C@H](CCC(=O)O)C1CCC2C3CC[C@@H]4C[C@](O)(CNCc5cccc(F)c5)CC[C@]4(C)C3CC[C@@]21C (stereo partly drawn) [compound 6g, 1-((3S,5R,10S,13R)-17-((R)-4-carboxybutan-2-yl)-3-hydroxy-10,13-dimethylhexadecahydro-1H-cyclopenta[a]phenanthren-3-yl)-N-(3-fluorobenzyl)methanaminium Chloride] | – | – | – | – | –
4 | > 100 | C[C@H](CCC(=O)O)C1CCC2C3CC[C@@H]4C[C@](O)(CNCc5cccc(Cl)c5)CC[C@]4(C)C3CC[C@@]21C (stereo partly drawn) [compound 6i, 1-((3S,5R,10S,13R)-17-((R)-4-carboxybutan-2-yl)-3-hydroxy-10,13-dimethylhexadecahydro-1H-cyclopenta[a]phenanthren-3-yl)-N-(3-chlorobenzyl)methanaminium Chloride] | – | – | – | – | –
5 | > 100 | C[C@H](CCC(=O)O)C1CCC2C3CC[C@@H]4C[C@](O)(CNCc5ccc(Cl)cc5)CC[C@]4(C)C3CC[C@@]21C (stereo partly drawn) [compound 6j, 1-((3S,5R,10S,13R)-17-((R)-4-carboxybutan-2-yl)-3-hydroxy-10,13-dimethylhexadecahydro-1H-cyclopenta[a]phenanthren-3-yl)-N-(4-chlorobenzyl)methanaminium Chloride] | – | – | – | – | –

More lines, now with the values behind:

Row | SMILES | IC50 (hPTP1B1–400 [1]; [3]) [µM] | Ki (hPTP1B1–400 [2]) [µM] | inhibition mechanism (hPTP1B1–400 [2]) | Km (hPTP1B1–400 [2]) [µM] | Vmax (hPTP1B1–400 [2]) [mM/min] | also measured
6 | C[C@H](CCC(=O)O)C1CCC2C3CC[C@@H]4C[C@](O)(CNCc5ccc(O)cc5)CC[C@]4(C)C3CC[C@@]21C (stereo partly drawn) [compound 6b, 1-((3S,5R,10S,13R)-17-((R)-4-carboxybutan-2-yl)-3-hydroxy-10,13-dimethylhexadecahydro-1H-cyclopenta[a]phenanthren-3-yl)-N-(4-hydroxybenzyl)methanaminium Chloride] | 26.9 ± 3.5 | – | – | – | – | –
7 | COc1cccc(CNC[C@]2(O)CC[C@]3(C)C4CC[C@@]5(C)C(CCC5[C@H](C)CCC(=O)O)C4CC[C@@H]3C2)c1.Cl (stereo partly drawn) [compound 6c, 1-((3S,5R,10S,13R)-17-((R)-4-carboxybutan-2-yl)-3-hydroxy-10,13-dimethylhexadecahydro-1H-cyclopenta[a]phenanthren-3-yl)-N-(3-methoxybenzyl)methanaminium Chloride] | 10.5 ± 0.2 | 4 ± 0.2 | Uncompetitive | 380 ± 20 | 0.64 ± 0.02 | –
8 | COc1ccc(CNC[C@]2(O)CC[C@]3(C)C4CC[C@@]5(C)C(CCC5[C@H](C)CCC(=O)O)C4CC[C@@H]3C2)cc1.Cl (stereo partly drawn) [compound 6d, 1-((3S,5R,10S,13R)-17-((R)-4-carboxybutan-2-yl)-3-hydroxy-10,13-dimethylhexadecahydro-1H-cyclopenta[a]phenanthren-3-yl)-N-(4-methoxybenzyl)methanaminium Chloride] | 26.6 ± 0.9 | 19.7 ± 2.6 | Uncompetitive | 780 ± 90 | 1.10 ± 0.09 | –
9 | Cc1ccc(CNC[C@]2(O)CC[C@]3(C)C4CC[C@@]5(C)C(CCC5[C@H](C)CCC(=O)O)C4CC[C@@H]3C2)cc1 (stereo partly drawn) [compound 6f, 1-((3S,5R,10S,13R)-17-((R)-4-carboxybutan-2-yl)-3-hydroxy-10,13-dimethylhexadecahydro-1H-cyclopenta[a]phenanthren-3-yl)-N-(4-methylbenzyl)methanaminium Chloride] | 34.3 ± 0.5 | – | – | – | – | IC50 (hPTP1B1–285): 46 ± 1.7 µM
10 | C[C@H](CCC(=O)O)C1CCC2C3CC[C@@H]4C[C@](O)(CNCc5ccc(F)cc5)CC[C@]4(C)C3CC[C@@]21C (stereo partly drawn) [compound 6h, 1-((3S,5R,10S,13R)-17-((R)-4-carboxybutan-2-yl)-3-hydroxy-10,13-dimethylhexadecahydro-1H-cyclopenta[a]phenanthren-3-yl)-N-(4-fluorobenzyl)methanaminium Chloride] | > 100 | – | – | – | – | –
11 | C[C@H](CCC(=O)O)C1CCC2C3CC[C@@H]4C[C@](O)(CNCc5cccc(C(=O)O)c5)CC[C@]4(C)C3CC[C@@]21C.Cl (stereo partly drawn) [compound 6k, N-(3-carboxybenzyl)-1-((3S,5R,10S,13R)-17-((R)-4-carboxybutan-2-yl)-3-hydroxy-10,13-dimethylhexadecahydro-1H-cyclopenta[a]phenanthren-3-Yl)methanaminium Chloride] | 32.3 ± 1.2 | 11 ± 1 | Uncompetitive | 480 ± 60 | 0.80 ± 0.06 | –
12 | C[C@H](CCC(=O)O)C1CCC2C3CC[C@@H]4C[C@](O)(CNCc5ccc(C(=O)O)cc5)CC[C@]4(C)C3CC[C@@]21C.Cl (stereo partly drawn) [compound 6l, N-(4-carboxybenzyl)-1-((3S,5R,10S,13R)-17-((R)-4-carboxybutan-2-yl)-3-hydroxy-10,13-dimethylhexadecahydro-1H-cyclopenta[a]phenanthren-3-yl)methanaminium Chloride] | 12.6 ± 0.7 | 10.7 ± 1.6 | Uncompetitive | 950 ± 150 | 1.41 ± 0.17 | –
13 | C[C@H](CCC(=O)O)C1CCC2C3CC[C@@H]4C[C@](O)(CNCc5cccc(C(F)(F)F)c5)CC[C@]4(C)C3CC[C@@]21C.Cl (stereo partly drawn) [compound 6m, 1-((3S,5R,10S,13R)-17-((R)-4-carboxybutan-2-yl)-3-hydroxy-10,13-dimethylhexadecahydro-1H-cyclopenta[a]phenanthren-3-yl)-N-(3-(trifluoromethyl)benzyl)methanaminium Chloride] | 7.3 ± 0.5 | 2.5 ± 0.4 | uncompetitive inhibition | 780 ± 200 | 1.05 ± 0.18 | IC50 (hPTP1B1–400 [1]; PTP1B IC50 ± SD, selectivity assay, hPTP1B1–400): 7.3 ± 0.5 µM; fold higher potency for hPTP1B1–400 over hPTP1B1–285 (hPTP1B1–400 [1]; ratio of IC50 values, long vs short form): around 5 fold; IC50 (hTCPTP; concentrations tested 1 to 400 μM, read-out: TCPTP IC50 ± SD): > 400 µM; fold selectivity for PTP1B over TCPTP (hTCPTP; hPTP1B1–400 vs hTCPTP): around 75 fold; selectivity (PTP1B over TCPTP) (hTCPTP; hPTP1B1–400 vs hTCPTP): Yes; IC50 (hPTP1B1–285): 34.9 ± 0.4 µM
